One test concerns SW620 (MLH1+/+) cells. Put plainly: MUT:WT* ratio of MLH1 loss-of-function variants without or with 6-thioguanine. Type of test: cell-based, human. To be noted: E448STOP, Q537STOP; 2 μM 6-thioguanine until Day 11. The text has this: Data represent ratios normalized to the value at Day 2 and are means of 3 independent experiments +/−SD. Two-tailed paired t-test were used to calculate the significance in all cases. NS=not significant. ** indicates p<0.01. *** indicates p<0.001. The figure and results are further described in the Examples.
Cultures of human colon cancer SW620 (MLH1+/+) cells were nucleofected with SpCas9 protein and synthetic gRNA/tracrRNA targeting genomic sites in MLH1 overlapping the sites to be mutated along with an oligonucleotide comprising the mutation of interest (MUT), which was as a known loss-of-function variant (E448STOP or Q537STOP), and an oligonucleotide comprising a corresponding synonymous mutation (WT*). At Day 2 after nucleofection, an aliquot of the cell culture was analysed by PCR amplification of the genomic target site and NGS of the PCR product to determine the ratio of MUT to WT* alleles in the cell population. Thereafter, cells were split in two cultures, and cultured in the absence (−) or presence (+) of 2 μM 6-thioguanine until Day 11, where after the mutation analysis was repeated for each culture.

A further test has as its system MCF10A (ATM+/+) cells. The experiment in a line: MUT:WT* ratio of ATM loss-of-function variants without or with Talazoparib. Type of test: cell-based, human. To be noted: R23STOP, Q218STOP, E365STOP; 2 nM Talazoparib until Day 12. An excerpt:
Data represent ratios normalized to the value at Day 2 and show a representative experiment. The figure and results are further described in the Examples.
Cultures of human breast epithelial MCF10A (ATM+/+) cells expressing SpCas9 were transfected with synthetic gRNA/tracrRNA targeting genomic sites in ATM overlapping the sites to be mutated along with an oligonucleotide comprising the mutation of interest (MUT), which was as known loss-of-function variants (R23STOP, Q218STOP or E365STOP), and an oligonucleotide comprising a corresponding synonymous mutation (WT*). At Day 2 after transfection, an aliquot of each culture was analysed by PCR amplification of the genomic target site and NGS of the PCR product to determine the ratio of MUT to WT* alleles in the cell population. Thereafter, cells were cultured in the absence (−) or presence (+) of 2 nM Talazoparib (a PARP inhibitor) until Day 12, where after the mutation analysis was repeated.

A further test concerns MCF10A-BRCA2+/− cells. Put plainly: MUT:WT* ratio of BRCA2 variants in cells cultured without or with PARP inhibitor. Format: cell-based, human. The conditions noted are these: 2 nM Talazoparib until Day 12, ratios normalized to Day 2. The method, then: At Day 2 after transfection, an aliquot of each culture was analysed by PCR amplification of the genomic target site and NGS of the PCR product to determine the ratio of MUT to WT* alleles in the cell population. Thereafter, cells were cultured in the absence or presence of 2 nM Talazoparib (a PARP inhibitor) until Day 12, whereafter the mutation analysis was repeated. Data represent ratios
normalized to the value at Day 2 and are means of 3 independent experiments +/−SD. Two-tailed unpaired t-tests were used to calculate the significance in all cases. NS=not significant. ** indicates p<0.01. **** indicates p<0.0001.
BRCA2 loss-of-function mutations sensitize cells to inhibitors of PARP, which are used in clinical trials/in the clinic as a synthetic lethal personalized therapy for cancer patients with BRCA inactivating mutations. We analysed one neutral BRCA2 mutation (D946V) and two loss-of-function BRCA2 mutations (I2627N, Y2660C) in breast epithelial MCF10A-BRCA2+/− cells cultured in the absence or presence of PARP inhibitor. […] Furthermore, the method will thereby also be useful for the purpose of drug development, drug testing and stratification of cancer patients in clinical trials with new drugs.

The next test concerns Hep3B cells. Put plainly: FGFR4 550M to WT* ratio in cells cultured without or with Fisogatinib. Type of test: cell-based, human. To be noted: 0.72 μM Fisogatinib until Day 16; ratios normalized to Day 2. The text has this: Data represent ratios normalized to the value at Day 2 and are means of 3 independent experiments +/−SD. Two-tailed paired t-tests were used to calculate the significance in all cases. NS=not significant. ** indicates p<0.01. The figure and results are further described in the Examples.
Cultures of human liver cancer Hep3B cells, which harbor FGF19 focal amplification, were nucleofected with SpCas9 protein and synthetic gRNA/tracrRNA targeting a genomic site overlapping the site to be mutated along with an oligonucleotide comprising the mutation of interest (V550M) in the Fisogatinib-binding site of FGFR4 and an oligonucleotide comprising a synonymous mutation (WT*). At Day 2 after nucleofection, an aliquot of the cell culture was analysed by PCR amplification of the genomic target site and NGS of the PCR product to determine the ratio of 550M to WT* alleles in the cell population. Thereafter, cells were split in two cultures, and cultured in the absence (−) or presence (+) of 0.72 μM Fisogatinib until Day 16, whereafter the mutation analysis was repeated on each culture. […] Such applications of the method are important for clinical management as well as for drug development in the pharmaceutical industry.

The test system of test [1] is H358 cells xenografted into nude mice. Put plainly: H358 xenograft in nude mice treated with vehicle or AMG 510: tumor volume and 12D versus 12C* ratio. Format: in vivo. The conditions noted are these: treated once per day from two weeks after xenografting, versus vehicle. The method, then: (A) A culture of human lung cancer H358 cells was nucleofected with SpCas9 protein and synthetic gRNA/tracrRNA targeting the oncogenic 12C mutation in KRAS present in these cells along with an oligonucleotide comprising the mutation of interest, which was another oncogenic KRAS mutation (12D), and an oligonucleotide comprising a synonymous mutation ([…]). At Day 2 after transfection, an aliquot of the cell culture was analysed by PCR amplification of the genomic target site and NGS of the PCR product to determine the ratio of 12D versus 12C* alleles in the cell population. […] (B) Determination of tumor volumes over time. (C) Representative mice photographed on day 40. […]
A culture of human lung cancer H358 cells was nucleofected with SpCas9 protein and synthetic gRNA/tracrRNA targeting the oncogenic 12C mutation in KRAS present in these cells along with an oligonucleotide comprising the mutation of interest, which was another oncogenic KRAS mutation (12D), and an oligonucleotide comprising a synonymous mutation (12C*). At Day 2 after transfection, an aliquot of the cell culture was analysed by PCR amplification of the genomic target site and NGS of the PCR product to determine the ratio of 12D versus 12C* alleles in the cell population. […] (B) Tumor volumes were determined over time and, (C) representative mice photographed on day 40.

For the compound `Nc1nc2nc[nH]c2c(=S)[nH]1` [6-thioguanine], the “ability of MLH1 to elicit apoptosis in response to 6-thioguanine in cells with loss-of-function mutations” value in the test with SW620 (MLH1+/+) cells is on record as “disabled”.

With `Cn1ncnc1[C@H]1c2n[nH]c(=O)c3cc(F)cc(c23)N[C@@H]1c1ccc(F)cc1` [Talazoparib], the “sensitivity of cells with loss-of-function ATM mutations to PARP inhibitor killing” value with MCF10A (ATM+/+) cells is recorded as “sensitized them to PARP inhibitor killing”. Moreover, the “effect on cells with the neutral BRCA2 mutation (MUT:WT* ratio)” value in the test on MCF10A-BRCA2+/− cells (D946V) was “no effect”. In addition, the “cell proliferation and/or survival of cells with the loss-of-function BRCA2 mutations” value in the test with MCF10A-BRCA2+/− cells (I2627N, Y2660C) is listed as “greatly decreased”. For `C=CC(=O)N[C@H]1CCOC[C@H]1Nc1ncc2cc(-c3c(Cl)c(OC)cc(OC)c3Cl)ccc2n1` [Fisogatinib], in the test with Hep3B cells, the “selection of cells harboring the FGFR4-V550M mutation relative to WT* (resistance)” value was “strongly selected for”. For the compound `C=CC(=O)N1CCN(c2nc(=O)n(-c3c(C)ccnc3C(C)C)c3nc(-c4c(O)cccc4F)c(F)cc23)[C@@H](C)C1` [AMG 510], the “bulk tumor size (tumor volumes over time)” value in test [1] was “greatly reduced”.

These data come from US20230407377A1, “CRISPR/CAS SCREENING SYSTEM MATERIALS AND METHODS” (University of Copenhagen, priority 2020, published 2023).
